Experimental data taken from patent publication US20030228256A1, “Methods of achieving transplantation tolerance through radioablation of hemolymphopoietic cell populations” (priority 2002, published 2003).
Like-named read-outs stand apart in the source and are kept apart here.

Columns and labels:
[1] = test system: donor-derived cells (BALB/c BMC) in recipients; experiment: Hemolymphopoietic chimerism: percentage of donor-derived cells in recipient PBL by flow cytometry after allogeneic BMC-Tx; format: in vivo, C57BL/6 mice
Method: (§1) Bone marrow-derived Cell Transplantation. Balb/c mice, 8-9 weeks old, used as donors, were sacrificed on the day of the transplant. Bone marrow cells (BMC) were prepared according to a previously published regimen. Briefly, after removing femura and tibiae, and cleaning them from muscle tissue and cartilage, BMC were flushed with sterile RPMI-1640 (Mediatech, Inc, Herndon, Va.) supplemented with 0.8 mg/ml Gentamycin (Gibco, Gaithersburg, Md.), using 23G needle. BMC were filtered through a sterile nylon mesh and counted. Fully MCH-mismatched C57BL/6 recipients, 9-10 weeks of age, were injected intravenously with either 20×10^6 or 100×10^6 unmanipulated BMCs resuspended in 0.5 and 1.0 ml of HBSS Hank's Balanced Saline Solution) (Mediatech) respectively, on either day 7 or 14. Tolerance induction protocol consisted of either 150 or 500 μCi of ^153Sm-EDTMP (Berlex Laboratories Wayne, N.J.), I.V., on day—7, and 0.5 mg hamster anti-murine CD154 mAb (MR-1), purchased from Taconic (Germantown, N.Y.) administered intraperitoneally (I.P.) on days—1,0,7,14, 21 and 28.
Immunohemotyping of chimeras. Engraftment of donor-derived BMCs was ascertained by flow cytometric analysis (FCM) of recipient peripheral blood mononuclear cells (PBMCs), splenocytes, thymocytes and bone marrow cells after staining with FITC-conjugated anti-mouse H-2K^b or H-2K^d and Cy-Chrome-conjugated CD3 monoclonal antibodies (mAbs) purchased from PharMingen (San Diego, Calif.) at multiple time points during the experiment as well as at sacrifice. Cells were also assessed for non-specific staining using an Ig isotype control (FITC-conjugated mouse IgG2a and Cy-Chrome-conjugated rat IgG2b), and the percentage of cells stained with this Ab was subtracted from the values obtained from staining with the specific Ab to determine the relative number of positive cells. Reconstitution of various cell lineages was assessed using FITC-conjugated anti-mouse H-2K^b or H-2K^d and PE-conjugated anti-mouse CD19/CD22 in the B cell, PE-conjugated anti-mouse Ly-6G in the granulocyte, and PE-conjugated anti-mouse Mac-3 in the macrophage compartments. Recipient animals were first tested 1 week after BMC-Tx, every 2 weeks up to 6 weeks, and every 4 weeks thereafter. Purified anti-mouse CD16/CD32 (FcγIII/II) was used to block non-specific binding to the Fc receptors. FCM analyses were preformed using CellQuest software on a FACScan cytometer purchased from Becton Dickinson & Co. (Mountain View, Calif.).
Typing of PBL obtained from the recipient animals starting at 2 weeks following the reconstitution with donor-derived BM allogeneic cells, every two weeks up to 6 weeks post-reconstitution, and every 4 weeks afterwards was performed using anti Class I H-2^b-FITC and H-2^d-FITC. Analysis was performed on the lymphoid gate, and the values were normalized to 100%.

[2] = test system: white blood cell counts (WBC), hemolymphopoietic elements; experiment: Blood counts (WBC, RBC, Hb, PLT) after single IV dose of 153Sm-EDTMP; format: in vivo, C57BL/6 mice; parameters: time at which myelodepression occurred: unit not given here
Method: as §1
Recipient animals (C57BL/6, H-2^b) were treated with a single IV dose of ^153Sm-EDTMP, 150 μCi or 500 μCi, prior to administration of 20×10^6 or 100×10^6 allogenic donor bone marrow cells (BMC) (BALB/c, H-2^d), also administered as a single IV dose. BMC transplantation (BMC-Tx) was performed on day 7 or 14 following the administration of ^153Sm in the presence of transient T lymphocyte co-stimulatory blockade by MR-1 (hamster anti-murine CD154 mAb) on days—1, 0, 7, 14, 21 and 28, 0.5 mg IP. […] Similar data were obtained in animals treated with ^153Sm-EDTMP and not transplanted with allogeneic BMC (not shown). […] No dramatic alterations of RBC, PLT or Hb counts were evident.

[3] = test system: donor-specific (Balb/c) and third party (C3H) skin grafts
Method: Full-thickness skin donor (Balb/c) and third party (C3H/HeJ) grafts were transplanted onto the lateral thoracic area of the recipients either the day following BMC-Tx, or 4 weeks following the last administration of MR-1 mAb, using techniques described previously. Briefly, square, full-thickness skin grafts (1 cm^2) were prepared from the tail skin of donors. Graft beds were prepared on the right (donor-specific) and left (third party) lateral thoracic wall of recipient mice. Grafts were fixed to the beds with 4 sutures of 5.0 silk at the corners of the graft and covered with a petroleum jelly-coated gauze and a plaster cast. The grafts were first inspected on the eighth-day following grafting, and every third day thereafter. Graft rejection was considered complete when no viable graft tissue was detected by visual inspection. Recipient mice were considered to be tolerant when donor-specific skin grafts survived in perfect condition for <150 days.
Grafts were prepared 30 days following the last administration of anti-CD154 mAb in the treated animals. Two different donor strain combinations, BALB/c (H-2^d), and C3H/J (H-2^k) were used. Each recipient received skin grafts from both strains: donor-type, BALB/c (H-2^d), as well as third-party, C3H/J (H-2^k). […] Grafts were followed for a minimum of 128 days and were considered rejected when viable tissue was no longer detected at the transplant site.

Compound: O=P([O-])(O)CN(CCN(CP(=O)([O-])O)CP(=O)(O)O)CP(=O)([O-])O.[153Sm+3] [^153Sm-EDTMP]
- CD3+ T lymphocytes of donor origin (mixed chimerism of lymphoid lineage) ([1]; 20×10^6 BMC, anti-CD154 mAb, 153Sm-EDTMP 150 or 500 μCi): CD3+ T lymphocytes of donor origin were also present
- chimerism levels with versus without 153Sm administration ([1]; 100×10^6 BMC, anti-CD154 mAb): reproducibly higher
- CD3+ T lymphocytes of donor origin (mixed chimerism of lymphoid lineage) ([1]; 100×10^6 BMC, anti-CD154 mAb, 153Sm-EDTMP 150 or 500 μCi): CD3+ T lymphocytes of donor origin were also present
- BM engraftment ([1]; 100×10^6 BMC, anti-CD154 mAb, 153Sm-EDTMP 150 or 500 μCi, BMC on day 7 or 14, FIG. 2): BM engraftment in all recipient animals analyzed
- chimerism in recipients of allogeneic BMC ([1]; absence of co-stimulatory blockade, 20×10^6 or 100×10^6 BMC, FIGS. 4-5): transient chimerism
- multilineage chimerism (B cells, NK, granulocytes) ([1]; combination of BMC-Tx, 153Sm-EDTMP and anti-CD154 mAb, FIGS. 7 and 8): long-term, stable multilineage chimerism
- chimerism in recipients of allogeneic BMC ([1]; in the presence of costimulatory blockade (anti-CD154 mAb)): long-lasting hemolymphopoietic chimerism
- chimerism across a full allogeneic barrier ([1]; single administration prior to infusion of allogeneic bone marrow-derived cells): high levels of stable long-term chimerism
- effectiveness of lower dose 150 μCi versus higher dose 500 μCi ([1]; with BMC-Tx and MR-1 co-stimulatory blockade): as effective as the higher dose
- influence of 153Sm dose (150 vs 500 μCi) and timing of BMC-Tx on chimerism ([1]; with costimulatory blockade): do not grossly influence the results
- reversibility of myelodepression of the WBC compartment ([2]; in the presence or absence of allogeneic BMC-Tx): spontaneously reversible
- effect on red blood cell (RBC), hemoglobin (Hb) and platelet (PLT) counts ([2]; single IV dose 150 or 500 μCi): does not have significant effect
- time at which myelodepression occurred ([2]; single IV dose 150 or 500 μCi): one
- time by which myelodepression spontaneously resolved ([2]; single IV dose 150 or 500 μCi): 4-6 weeks post-administration
- myelodepression (decreased white blood cell counts) ([2]; single IV dose 150 or 500 μCi, FIG. 1): transient myelodepression
- third party (C3H/J) skin graft outcome ([3]; 20×10^6 BMC, 153Sm-EDTMP and anti-CD154 mAb): rejected within the same time frame as were donor-specific grafts placed on naïve recipients
- tolerance to donor-specific skin grafts ([3]; 20×10^6 BMC, 153Sm-EDTMP and anti-CD154 mAb, FIG. 9): tolerance to donor-specific skin grafts is obtained
- third party (C3H/J) skin graft outcome ([3]; 100×10^6 BMC, 153Sm-EDTMP and anti-CD154 mAb): rejected within the same time frame as were donor-specific grafts placed on naïve recipients
- enhancing effect of 153Sm administration on graft survival ([3]; 100×10^6 BMC, anti-CD154 mAb, FIG. 10): lost
- time donor-derived skin grafts were kept ([3]; a large percent of animals, followed up to 31 weeks post bone marrow transplantation, with anti-CD154 mAb): > 150 days
